Experimental data: PubChem BioAssay (NCI)
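Grown in 96-well plates, cells were treated for 48 hours with each compound at five concentrations. Insufficient inhibition: endpoint recorded as highest concentration tested. GI50 marks 50% less growth. TGI marks complete inhibition of growth.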

Key:
Assay in all cases: NCI tumour cell line growth inhibition, 48 h
[1] = test system: HOP-62 NSCLC
[2] = test system: 786-0 renal
[3] = test system: SNB-19 CNS
[4] = test system: LOX IMVI melanoma
[5] = test system: HCT-116 colon
[6] = test system: ACHN renal
[7] = test system: MALME-3M melanoma
[8] = test system: COLO 205 colon
[9] = test system: NCI-H23 lung
[10] = test system: A498 renal
[11] = test system: EKVX NSCLC
[12] = test system: NCI-H460 lung
[13] = test system: OVCAR-5 ovarian
[14] = test system: SF-268 CNS
[15] = test system: A549 NSCLC
[16] = test system: UACC-257 melanoma
[17] = test system: OVCAR-8 ovarian
[18] = test system: HCC-2998 colon
[19] = test system: SK-MEL-2 melanoma
[20] = test system: K-562 leukemia
[21] = test system: NCI-H226 lung
[22] = test system: CCRF-CEM leukemia
[23] = test system: SR leukemia
[24] = test system: HL-60(TB) leukemia
[25] = test system: M14 melanoma
[26] = test system: MDA-MB-231 breast
[27] = test system: CAKI-1 renal
[28] = test system: MOLT-4 leukemia
[29] = test system: SF-539 CNS
[30] = test system: HS 578T breast
[31] = test system: SF-295 CNS
[32] = test system: U251 CNS
[33] = test system: RXF 393 renal
[34] = test system: HCT-15 colon
[35] = test system: OVCAR-4 ovarian
[36] = test system: MDA-MB-435
[37] = test system: SNB-75 CNS
[38] = test system: PC-3 prostate
[39] = test system: SK-MEL-28 melanoma
[40] = test system: T-47D breast
[41] = test system: TK-10 renal
[42] = test system: HOP-92 NSCLC
[43] = test system: MCF7 breast
[44] = test system: KM12 colon
[45] = test system: SN12C renal
[46] = test system: NCI/ADR-RES ovarian
[47] = test system: SK-MEL-5 melanoma
[48] = test system: BT-549 breast
[49] = test system: UO-31 renal
[50] = test system: NCI-H522 lung
[51] = test system: SW-620 colon
[52] = test system: UACC-62 melanoma
[53] = test system: OVCAR-3 ovarian
[54] = test system: IGROV1 ovarian
[55] = test system: DU-145 prostate
[56] = test system: HT29 colon
[57] = test system: SK-OV-3 ovarian
[58] = test system: RPMI-8226 leukemia

Molecule `CN(C)Cc1c(C(=O)NCCOc2ccc(C(=O)NO)cc2)oc2ccccc12` has a GI50 [1] of 247 nM, a TGI [1] of 12100 nM and a GI50 [2] of 405 nM. The TGI [2] was 9160 nM, the GI50 [3] was 453 nM and the TGI [3] was 13900 nM. The GI50 [4] was 289 nM, the TGI [4] was 1110 nM and the GI50 [5] was 70.5 nM. The TGI [5] was 502 nM, the GI50 [6] was 264 nM and the TGI [6] was 1150 nM. It also gave a GI50 [7] of 70.9 nM, a TGI [7] of 36200 nM and a GI50 [8] of 133 nM. For the same molecule, the TGI [8] was 282 nM, the GI50 [9] was 267 nM and the TGI [9] was 2060 nM. The GI50 [10] was 126 nM, the TGI [10] was 411 nM and the GI50 [11] was 346 nM. It also gave a TGI [11] greater than 100000 nM, a GI50 [12] of 221 nM and a TGI [12] greater than 100000 nM. For the same molecule, the GI50 [13] was 115 nM, the TGI [13] was 1300 nM and the GI50 [14] was 464 nM. For the same molecule, the TGI [14] was 6020 nM, the GI50 [15] was 299 nM and the TGI [15] was 1980 nM. The GI50 [16] was 68.9 nM, the TGI [16] was 592 nM and the GI50 [17] was 80.7 nM. The TGI [17] was 3990 nM, the GI50 [18] was 220 nM and the TGI [18] was 830 nM. The GI50 [19] was 243 nM, the TGI [19] was 1540 nM and the GI50 [20] was 307 nM. The TGI [20] was greater than 100000 nM, the GI50 [21] was 626 nM and the TGI [21] was 7600 nM. It also gave a GI50 [22] of 135 nM, a TGI [22] of 25800 nM and a GI50 [23] of 203 nM. For the same molecule, the TGI [23] was 12400 nM, the GI50 [24] was 303 nM and the TGI [24] was 2190 nM. The GI50 [25] was 223 nM, the TGI [25] was 1680 nM and the GI50 [26] was 392 nM. The TGI [26] was 18200 nM, the GI50 [27] was 311 nM and the TGI [27] was 1570 nM. For the same molecule, the GI50 [28] was 114 nM, the TGI [28] was 1530 nM and the GI50 [29] was 385 nM. The TGI [29] was 18000 nM, the GI50 [30] was 158 nM and the TGI [30] was 851 nM. The GI50 [31] was 225 nM, the TGI [31] was 713 nM and the GI50 [32] was 229 nM. It also gave a TGI [32] of 976 nM, a GI50 [33] of 197 nM and a TGI [33] of 643 nM. The GI50 [34] was 1900 nM, the TGI [34] was greater than 35900 nM and the GI50 [35] was 269 nM. It also gave a TGI [35] greater than 71300 nM, a GI50 [36] of 174 nM and a TGI [36] of 679 nM. The GI50 [37] was 153 nM, the TGI [37] was greater than 40700 nM and the GI50 [38] was 214 nM. The TGI [38] was 5060 nM, the GI50 [39] was 267 nM and the TGI [39] was 2500 nM. For the same molecule, the GI50 [40] was 163 nM, the TGI [40] was 777 nM and the GI50 [41] was 185 nM. For the same molecule, the TGI [41] was 880 nM, the GI50 [42] was 60.3 nM and the TGI [42] was 424 nM. It also gave a GI50 [43] of 261 nM, a GI50 [44] of 312 nM and a TGI [44] of 2340 nM. The GI50 [45] was 459 nM, the TGI [45] was greater than 100000 nM and the GI50 [46] was 306 nM. The TGI [46] was 4270 nM, the GI50 [47] was 159 nM and the TGI [47] was 347 nM. For the same molecule, the GI50 [48] was 519 nM, the TGI [48] was 13800 nM and the GI50 [49] was 296 nM. The TGI [49] was 2660 nM, the GI50 [50] was 81.9 nM and the TGI [50] was 574 nM. For the same molecule, the GI50 [51] was 166 nM, the TGI [51] was 547 nM and the GI50 [52] was 151 nM. It also gave a TGI [52] of 630 nM, a GI50 [53] of 272 nM and a TGI [53] of 969 nM. The GI50 [54] was 438 nM, the TGI [54] was 3600 nM and the GI50 [55] was 225 nM. It also gave a TGI [55] greater than 33600 nM, a GI50 [56] of 205 nM and a TGI [56] of 1360 nM. It also gave a GI50 [57] of 273 nM, a TGI [57] of 2010 nM and a GI50 [58] of 138 nM. For the same molecule, the TGI [58] was 662 nM.
